Experimental data published in patent US20120329872A1, “Ready-To-Eat Feed For Domestic Pets” (Alzchem Trostberg GmbH, priority 2006, published 2012).

Key:
[1] = Stability in water (pH 7) heated in an autoclave to 160° C. for 30 minutes (model of feed extrusion); type: physicochemical
Description: For this purpose a model system was used for the extrusion of a moist feed paste at 160° C. […] Subsequently the content of creatine and guanidinoacetic acid was determined.

[2] = Storage stability in water at pH 5 over 60 days (comparable to canned feeds); type: physicochemical
[3] = dogs, oral, about 40 mg/kg daily for several weeks; cited from earlier work
[4] = 200 patients, 30 mg GAA/kg daily for one year, in combination with betaine; cited from earlier work
Staphylococcus aureus = settings: bacterial infections (Staphylococcus aureus); cited from earlier work

Compound	content remaining, of the original content ([1]; water pH 7, 30 minutes at 160° C., autoclave)	content recovered after storage ([2]; water pH 5, after 60 days) [%]	body weight change [3]	nitrogen balance [3]	content remaining, of the original content ([1]; 0.5 h, pH 7)	degradation after storage ([2]; water pH 5, after 60 days)	storage stability compared with creatine (FIG. 2) ([2]; water pH 5, over 60 days)	side effects [4]	antibacterial action in animal experiments (Staphylococcus aureus)
CN(CC(=O)O)C(=N)N [creatine, reference compound]	less than 20%	87	considerable increase in weight	positive nitrogen balance	–	–	–	–	–
N=C(N)NCC(=O)O [guanidinoacetic acid]	–	–	–	–	more than 80%	no degradation	significantly higher storage stability than creatine	not observed	successfully used against bacterial infections
